# Test results reported in patent US20060069132A1, “Azolecarboxamide herbicides” (priority 2004, published 2006).
# What was measured:
# wheat [1] = assay: Test B postemergence herbicide test; assay type: in vivo, Triticum aestivum; parameters: key to Wheat plant response rating: 0 = no effect, 100 = complete control
# Summary of the method: (§1)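 Treated at 2-leaf (paddy) or 1–4-leaf, 2–18 cm (postemergence); greenhouse 13–15 d; visual score vs control, 0 none to 100 complete control; dash = not tested.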
# pigweed = assay: Test B pre-/postemergence herbicide test; assay type: in vivo, Amaranthus retroflexus
# Summary of the method: (§2)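 Formulation: non-phytotoxic solvent mix with surfactant. Timing: preemergence on seed and postemergence on 2–18 cm plants, applied concurrently. Readout after 13–15 d greenhouse: visual 0–100 control rating against controls.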
# velvetleaf = assay: Test B pre-/postemergence herbicide test; assay type: in vivo, Abutilon theophrasti
# Summary of the method: as §2
# [2] = test system: small flower umbrella sedge; assay: Test B flooded paddy test; assay type: in vivo, Cyperus difformis; settings: 1000 g ai/ha, scale 0 to 100 (0 no effect, 100 complete control)
# Summary of the method: (§3)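 Formulated test chemicals went onto postemergence plants measuring 2 to 18 cm, at one to four leaves. For the paddy assay, species had reached two leaves. Scoring took place 13–15 days later by eye, relative to untreated plants, using 0 for no effect up to 100 for full control.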
# wheat [3] = assay: Test C postemergence herbicide test; assay type: in vivo, Triticum aestivum; settings: postemergence, scale 0 to 100
# Summary of the method: (§4)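 After a postemergence application at 1 to 4 leaves (plants 2–18 cm high), or at 2 leaves for barnyardgrass in flooded paddy, plants stayed in the greenhouse for 12 to 14 days. Damage was then judged visually relative to control plants, with 100 indicating complete control.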
# canarygrass = assay: Test C postemergence herbicide test; assay type: in vivo, Phalaris minor
# Summary of the method: as §4
# corn = assay: Test B pre-/postemergence herbicide test; assay type: in vivo, Zea mays
# Summary of the method: as §2
# Surinam grass = assay: Test B pre-/postemergence herbicide test; assay type: in vivo, Urochloa decumbens
# Summary of the method: as §2
# barnyardgrass [4] = assay: Test B flooded paddy test; assay type: in vivo, Echinochloa crus-galli; settings: 1000 g ai/ha, scale 0 to 100 (0 no effect, 100 complete control)
# Summary of the method: as §3
# morningglory = assay: Test B pre-/postemergence herbicide test; assay type: in vivo, Ipomoea coccinea
# Summary of the method: (§5)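 Plants compared with untreated controls 13–15 days post-treatment and given a visual 0–100 injury score. Applications: preemergence to seeds; postemergence at 1- to 4-leaf (2–18 cm); paddy species flooded, 2-leaf stage. Vehicle non-phytotoxic, surfactant included.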
# barnyardgrass [5] = assay: Test B pre-/postemergence herbicide test; assay type: in vivo, Echinochloa crus-galli; settings: for Barnyardgrass plant response rating: Postemergence, scale 0 (no effect) to 100 (complete control)
# Summary of the method: as §5
# large crabgrass = assay: Test B pre-/postemergence herbicide test; assay type: in vivo, Digitaria sanguinalis
# Summary of the method: as §2
# blackgrass [6] = assay: Test C postemergence herbicide test; assay type: in vivo, Alopecurus myosuroides
# Summary of the method: as §4
# Italian ryegrass = assay: Test C postemergence herbicide test; assay type: in vivo, Lolium multiflorum; settings: postemergence, scale 0 to 100
# Summary of the method: as §4
# windgrass = assay: Test C postemergence herbicide test; assay type: in vivo, Apera spica-venti; settings: postemergence, scale 0 to 100
# Summary of the method: as §4
# cocklebur = assay: Test B pre-/postemergence herbicide test; assay type: in vivo, Xanthium strumarium
# Summary of the method: as §5
# green foxtail = assay: Test C postemergence herbicide test; assay type: in vivo, Setaria viridis
# Summary of the method: as §4
# lambsquarters = assay: Test B pre-/postemergence herbicide test; assay type: in vivo, Chenopodium album
# Summary of the method: as §2
# giant foxtail = assay: Test B pre-/postemergence herbicide test; assay type: in vivo, Setaria faberi
# Summary of the method: as §2
# ducksalad = assay: Test B flooded paddy test; assay type: in vivo, Heteranthera limosa; settings: 1000 g ai/ha, scale 0 to 100 (0 no effect, 100 complete control)
# Summary of the method: as §3
# winter barley = assay: Test C postemergence herbicide test; assay type: in vivo, Hordeum vulgare
# Summary of the method: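 Injury scored visually against controls on a 0 (no effect) to 100 (complete control) scale, 12 to 14 days after treatment in greenhouse. Flooded paddy plants treated at 2-leaf stage; postemergence plants at 1- to 4-leaf stage, 2 to 18 cm tall.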
# wild oat [7] = assay: Test C postemergence herbicide test; assay type: in vivo, Avenafatua; settings: postemergence, scale 0 to 100
# Summary of the method: as §4
# wild oat [8] = assay: Test B postemergence herbicide test; assay type: in vivo, Avena fatua
# Summary of the method: as §1
# blackgrass [9] = assay: Test B postemergence herbicide test; assay type: in vivo, Alopecurus myosuroides
# Summary of the method: as §3
# rice = assay: Test B flooded paddy test; assay type: in vivo, Oryza sativa; settings: 1000 g ai/ha, scale 0 to 100 (0 no effect, 100 complete control)
# Summary of the method: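 Scale 0–100: zero equals no visible effect, 100 complete control, judged by eye relative to controls. Timing: 13 to 15 days in greenhouse post-treatment. Growth stage at spraying: two leaves (paddy) or one to four leaves, 2–18 cm (postemergence).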
# downy bromegrass = assay: Test C postemergence herbicide test; assay type: in vivo, Bromus tectorum
# Summary of the method: as §4
# [10] = Postemergence, 500 g ai/ha, scale 0 (no effect) to 100 (complete control)
# [11] = postemergence, 125 g ai/ha, scale 0 to 100
# [12] = 125 g ai/ha, 0 is no effect, 100 is complete control, preemergence
# [13] = Postemergence, 250 g ai/ha, scale 0 to 100, 0 no effect, 100 complete control
# [14] = postemergence, 31 g ai/ha, scale 0 to 100
# [15] = postemergence, 62 g ai/ha, scale 0 to 100
smiles,measurement,setting,value
C=CCNC(=O)c1ccc(F)c(NC(=O)c2cc(C(C)(C)C)nn2CC)c1 [Compound 430],Wheat plant response rating,"wheat [1]; 500 g ai/ha, scale 0 to 100, 0 no effect, 100 complete control, preemergence",100
same,Wheat plant response rating,wheat [1]; [10],40
same,Wheat plant response rating,wheat [1]; [11],30
same,"Plant response rating (0 to 100 scale), Pigweed",pigweed; [12],100
same,Pigweed plant response rating,pigweed; [10],80
same,Pigweed plant response rating,pigweed; [11],60
same,"Plant response rating (0 to 100 scale), Velvetleaf",velvetleaf; [12],40
same,Velvetleaf plant response rating,velvetleaf; [10],80
same,Velvetleaf plant response rating,velvetleaf; [11],60
same,"Sedge, Umbrella plant response rating",[2],80
same,"Plant response rating, Wheat",wheat [3]; 125 g ai/ha,50
same,"Plant response rating, Wheat",wheat [3]; 62 g ai/ha,45
same,"Plant response rating, Canarygrass",canarygrass; [13],60
same,"Plant response rating, Canarygrass",canarygrass; [11],50
same,"Plant response rating, Canarygrass",canarygrass; [14],30
same,"Plant response rating, Canarygrass",canarygrass; [15],40
same,"Plant response rating (0 to 100 scale), Corn",corn; [12],50
same,Corn plant response rating,corn; [10],40
same,Corn plant response rating,corn; [11],20
same,"Plant response rating (0 to 100 scale), Surinam Grass",Surinam grass; [12],80
same,Surinam Grass plant response rating,Surinam grass; [10],40
same,Surinam Grass plant response rating,Surinam grass; [11],30
same,Barnyardgrass plant response rating,barnyardgrass [4],80
same,"Plant response rating (0 to 100 scale), Morningglory",morningglory; [12],20
same,Morningglory plant response rating,morningglory; [10],70
same,Morningglory plant response rating,morningglory; [11],60
same,"Plant response rating (0 to 100 scale), Barnyardgrass",barnyardgrass [5]; [12],90
same,Barnyardgrass plant response rating,barnyardgrass [5]; 125 g ai/ha,30
same,Barnyardgrass plant response rating,barnyardgrass [5]; 500 g ai/ha,50
same,"Plant response rating (0 to 100 scale), Crabgrass, Large",large crabgrass; [12],100
same,"Crabgrass, Large plant response rating",large crabgrass; [10],50
same,"Crabgrass, Large plant response rating",large crabgrass; [11],30
same,"Plant response rating, Blackgrass",blackgrass [6]; [13],65
same,"Plant response rating, Blackgrass",blackgrass [6]; [11],55
same,"Plant response rating, Blackgrass",blackgrass [6]; [14],45
same,"Plant response rating, Blackgrass",blackgrass [6]; [15],50
same,"Plant response rating, Ryegrass, Italian",Italian ryegrass; 125 g ai/ha,60
same,"Plant response rating, Ryegrass, Italian",Italian ryegrass; 62 g ai/ha,55
same,"Plant response rating, Windgrass",windgrass; 125 g ai/ha,45
same,"Plant response rating, Windgrass",windgrass; 62 g ai/ha,35
same,"Plant response rating (0 to 100 scale), Cocklebur",cocklebur; [12],10
same,Cocklebur plant response rating,cocklebur; [10],90
same,Cocklebur plant response rating,cocklebur; [11],60
same,"Plant response rating, Foxtail, Green",green foxtail; [13],60
same,"Plant response rating, Foxtail, Green",green foxtail; [11],50
same,"Plant response rating, Foxtail, Green",green foxtail; [15],45
same,"Plant response rating (0 to 100 scale), Lambsquarters",lambsquarters; [12],100
same,Lambsquarters plant response rating,lambsquarters; [10],80
same,Lambsquarters plant response rating,lambsquarters; [11],60
same,"Plant response rating (0 to 100 scale), Foxtail, Giant",giant foxtail; [12],90
same,"Foxtail, Giant plant response rating",giant foxtail; [10],40
same,"Foxtail, Giant plant response rating",giant foxtail; [11],30
same,Ducksalad plant response rating,ducksalad,80
same,"Plant response rating, Barley, Winter","winter barley; Postemergence, 125 g ai/ha, scale 0 to 100, 0 no effect, 100 complete control",35
same,"Plant response rating, Barley, Winter",winter barley; [13],45
same,"Plant response rating, Barley, Winter",winter barley; [14],25
same,"Plant response rating, Barley, Winter","winter barley; postemergence, 62 g ai/ha, scale 0 to 100 (0 no effect, 100 complete control)",30
same,"Plant response rating, Oat, Wild",wild oat [7]; 125 g ai/ha,60
same,"Plant response rating, Oat, Wild",wild oat [7]; 62 g ai/ha,55
same,"Oat, Wild plant response rating",wild oat [8]; [10],50
same,"Oat, Wild plant response rating",wild oat [8]; [11],40
same,Blackgrass plant response rating,blackgrass [9]; [10],70
same,Blackgrass plant response rating,blackgrass [9]; [11],40
same,Rice plant response rating,rice,60
same,"Plant response rating, Bromegrass, Downy",downy bromegrass; [13],55
same,"Plant response rating, Bromegrass, Downy",downy bromegrass; [11],50
same,"Plant response rating, Bromegrass, Downy",downy bromegrass; [14],45
same,"Plant response rating, Bromegrass, Downy",downy bromegrass; [15],45
